The source of these data is paper PMC7026418, “The kinase polypharmacology landscape of clinical PARP inhibitors” (Scientific Reports, 2020).

Holding throughout (test): biochemical
What all share (set-up): DiscoveRx KINOMEscan active site-directed competition binding; percent of control kinase bound to immobilised ligand

For assay [1], the target named is T1, FLT3(D835Y) (Homo sapiens, UniProt P36888, D835Y).
T1 sequence (P36888 1-993 D835Y): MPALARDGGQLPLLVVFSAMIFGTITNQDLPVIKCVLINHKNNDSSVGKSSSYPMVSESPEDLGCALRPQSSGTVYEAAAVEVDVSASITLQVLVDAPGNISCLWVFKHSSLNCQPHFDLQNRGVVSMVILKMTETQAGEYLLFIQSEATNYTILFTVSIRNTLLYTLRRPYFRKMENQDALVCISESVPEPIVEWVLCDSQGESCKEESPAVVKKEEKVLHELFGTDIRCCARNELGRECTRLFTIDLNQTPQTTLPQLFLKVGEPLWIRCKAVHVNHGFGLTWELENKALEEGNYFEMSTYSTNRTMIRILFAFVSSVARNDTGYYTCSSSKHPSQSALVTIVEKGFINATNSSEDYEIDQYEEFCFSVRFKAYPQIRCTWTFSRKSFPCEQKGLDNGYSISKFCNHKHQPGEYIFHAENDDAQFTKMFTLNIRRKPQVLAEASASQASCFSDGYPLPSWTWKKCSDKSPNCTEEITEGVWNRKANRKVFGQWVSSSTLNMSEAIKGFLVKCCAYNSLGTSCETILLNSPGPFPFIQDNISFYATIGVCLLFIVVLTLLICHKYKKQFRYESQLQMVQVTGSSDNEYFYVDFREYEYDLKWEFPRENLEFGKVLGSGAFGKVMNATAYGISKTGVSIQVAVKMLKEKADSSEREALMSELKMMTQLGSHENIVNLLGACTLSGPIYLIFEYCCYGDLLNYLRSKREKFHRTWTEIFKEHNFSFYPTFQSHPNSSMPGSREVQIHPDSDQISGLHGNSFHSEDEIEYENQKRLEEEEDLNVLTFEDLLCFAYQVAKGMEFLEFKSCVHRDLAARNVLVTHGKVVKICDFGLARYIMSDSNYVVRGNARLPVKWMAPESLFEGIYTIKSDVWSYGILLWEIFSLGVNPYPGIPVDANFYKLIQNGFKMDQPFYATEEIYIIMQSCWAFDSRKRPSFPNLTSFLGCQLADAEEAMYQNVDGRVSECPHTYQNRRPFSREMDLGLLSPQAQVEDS

Assay [2] deals with T2, BIKE (Homo sapiens, UniProt Q9NSY1).
T2 construct: gene BMP2K

The target of assay [3] is T3, EPHB4 (Homo sapiens, UniProt P54760).
T3 sequence (P54760 1-987): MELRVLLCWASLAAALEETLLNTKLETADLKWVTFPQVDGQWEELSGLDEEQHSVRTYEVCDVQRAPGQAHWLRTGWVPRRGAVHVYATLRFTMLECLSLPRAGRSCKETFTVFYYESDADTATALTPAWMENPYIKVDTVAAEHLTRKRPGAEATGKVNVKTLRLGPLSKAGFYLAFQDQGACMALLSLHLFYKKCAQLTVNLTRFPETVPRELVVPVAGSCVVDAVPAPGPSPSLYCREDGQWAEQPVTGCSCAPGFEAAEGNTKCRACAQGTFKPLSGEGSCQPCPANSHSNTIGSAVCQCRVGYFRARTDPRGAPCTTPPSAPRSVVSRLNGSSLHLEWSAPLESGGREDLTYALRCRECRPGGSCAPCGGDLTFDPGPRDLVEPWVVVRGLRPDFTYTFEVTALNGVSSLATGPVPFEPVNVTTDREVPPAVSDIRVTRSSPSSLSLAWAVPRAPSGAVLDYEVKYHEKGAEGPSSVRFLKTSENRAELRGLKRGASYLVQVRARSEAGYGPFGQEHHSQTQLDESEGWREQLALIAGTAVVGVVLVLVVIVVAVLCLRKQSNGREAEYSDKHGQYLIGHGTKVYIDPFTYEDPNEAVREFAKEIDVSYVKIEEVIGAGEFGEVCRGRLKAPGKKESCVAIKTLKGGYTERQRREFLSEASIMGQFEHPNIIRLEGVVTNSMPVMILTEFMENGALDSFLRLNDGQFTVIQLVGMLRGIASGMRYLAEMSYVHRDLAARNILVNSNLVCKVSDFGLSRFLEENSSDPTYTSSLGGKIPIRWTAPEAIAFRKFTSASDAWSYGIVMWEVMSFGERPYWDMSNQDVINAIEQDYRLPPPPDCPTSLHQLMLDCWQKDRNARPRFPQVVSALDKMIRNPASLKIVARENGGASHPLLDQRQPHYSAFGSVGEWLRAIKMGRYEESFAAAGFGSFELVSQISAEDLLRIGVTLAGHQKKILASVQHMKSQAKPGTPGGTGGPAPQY

Assay [4] concerns the target STK39 (Homo sapiens, UniProt Q9UEW8).
The mark [5] stands for this setting: read-out: Rucaparib / %Ctrl @ 10000nM, binding competition, % of control.
Setting [6] is: read-out: Talazoparib (BMN 673) / %Ctrl @ 10000nM.
Where [7] appears, read: read-out: Niraparib (MK-4827) / %Ctrl @ 10000nM.
Setting [8] is: read-out: Olaparib / %Ctrl @ 10000nM.

Where two headings read alike, the source gives them in different places.

T2 sequence (Q9NSY1 whole entry): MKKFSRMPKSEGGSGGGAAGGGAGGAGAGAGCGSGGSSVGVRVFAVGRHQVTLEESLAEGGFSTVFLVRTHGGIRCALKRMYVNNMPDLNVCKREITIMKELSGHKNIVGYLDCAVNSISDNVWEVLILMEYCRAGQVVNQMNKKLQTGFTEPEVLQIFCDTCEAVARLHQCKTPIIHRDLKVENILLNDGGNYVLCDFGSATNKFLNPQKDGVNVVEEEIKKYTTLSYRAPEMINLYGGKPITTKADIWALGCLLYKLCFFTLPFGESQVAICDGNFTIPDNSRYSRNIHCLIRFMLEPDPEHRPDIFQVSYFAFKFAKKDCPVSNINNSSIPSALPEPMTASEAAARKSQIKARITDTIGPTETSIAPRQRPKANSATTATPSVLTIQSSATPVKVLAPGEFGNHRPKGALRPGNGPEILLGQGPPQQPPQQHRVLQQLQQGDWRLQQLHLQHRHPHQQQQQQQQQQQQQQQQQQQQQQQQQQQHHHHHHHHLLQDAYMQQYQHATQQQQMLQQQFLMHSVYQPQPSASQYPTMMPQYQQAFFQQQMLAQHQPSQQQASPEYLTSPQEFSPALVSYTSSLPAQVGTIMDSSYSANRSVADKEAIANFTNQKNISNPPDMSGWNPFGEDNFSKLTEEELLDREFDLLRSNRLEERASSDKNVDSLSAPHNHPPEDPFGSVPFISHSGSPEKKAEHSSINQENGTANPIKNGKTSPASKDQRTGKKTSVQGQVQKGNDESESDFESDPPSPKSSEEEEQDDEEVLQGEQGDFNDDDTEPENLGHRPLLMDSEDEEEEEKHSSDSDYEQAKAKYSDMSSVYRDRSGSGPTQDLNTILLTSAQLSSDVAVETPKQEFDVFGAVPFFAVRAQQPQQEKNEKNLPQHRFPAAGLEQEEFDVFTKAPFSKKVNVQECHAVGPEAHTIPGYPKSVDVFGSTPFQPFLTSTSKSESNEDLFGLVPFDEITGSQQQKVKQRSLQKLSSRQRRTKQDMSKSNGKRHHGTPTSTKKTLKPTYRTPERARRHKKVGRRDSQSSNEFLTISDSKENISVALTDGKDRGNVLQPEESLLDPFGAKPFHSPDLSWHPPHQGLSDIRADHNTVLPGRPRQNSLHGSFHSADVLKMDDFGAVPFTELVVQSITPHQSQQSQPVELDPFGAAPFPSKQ

Consider `CNCc1ccc(-c2[nH]c3cc(F)cc4c3c2CCNC4=O)cc1` [Rucaparib], for which the “Rucaparib / %Ctrl @ 10000nM” value in assay [1] (binding competition, % of control) came to 24%. Moreover, the results for the percent of control binding at 10 µM in assay [2] (setting [5]), in assay [3] (setting [5]) and in assay [4] (setting [5]) were 72%, 95% and 73%, respectively.
Take `Cn1ncnc1[C@H]1c2n[nH]c(=O)c3cc(F)cc(c23)N[C@@H]1c1ccc(F)cc1` [Talazoparib]: the percent of control binding at 10 µM in assay [1] (setting [6]) worked out at 96%; in assay [2] (setting [6]) it was 93%; in assay [3] (setting [6]), 100%; in assay [4] (setting [6]), 100%.
For `NC(=O)c1cccc2cn(-c3ccc([C@@H]4CCCNC4)cc3)nc12` [Niraparib], the percent of control binding at 10 µM in assay [1] (setting [7]) worked out at 54%; in assay [2] (setting [7]), 81%; in assay [3] (setting [7]), 91%; in assay [4] (setting [7]), 70%.
With `O=C(c1cc(Cc2n[nH]c(=O)c3ccccc23)ccc1F)N1CCN(C(=O)C2CC2)CC1` [Olaparib], the percent of control binding at 10 µM in assay [1] (setting [8]) stood at 87%; in assay [2] (setting [8]), 100%; in assay [3] (setting [8]), 90%; in assay [4] (setting [8]) it was 92%.
